6 compounds from US11780893B2, “Kv1.3 blockers” (Zealand Pharma A/S, priority 2019, dated 2023) can be followed below.

In general, IC50 refers to the concentration at which inhibition is half-maximal.

Bridge positions count the residues as written; N and C are the ends. Square brackets hold non-standard residues; d marks the D form. Peptide text beside a SMILES is read from it. Nle = CCCC[C@H](N)C(=O)O

T1 sequence (P22001 whole entry): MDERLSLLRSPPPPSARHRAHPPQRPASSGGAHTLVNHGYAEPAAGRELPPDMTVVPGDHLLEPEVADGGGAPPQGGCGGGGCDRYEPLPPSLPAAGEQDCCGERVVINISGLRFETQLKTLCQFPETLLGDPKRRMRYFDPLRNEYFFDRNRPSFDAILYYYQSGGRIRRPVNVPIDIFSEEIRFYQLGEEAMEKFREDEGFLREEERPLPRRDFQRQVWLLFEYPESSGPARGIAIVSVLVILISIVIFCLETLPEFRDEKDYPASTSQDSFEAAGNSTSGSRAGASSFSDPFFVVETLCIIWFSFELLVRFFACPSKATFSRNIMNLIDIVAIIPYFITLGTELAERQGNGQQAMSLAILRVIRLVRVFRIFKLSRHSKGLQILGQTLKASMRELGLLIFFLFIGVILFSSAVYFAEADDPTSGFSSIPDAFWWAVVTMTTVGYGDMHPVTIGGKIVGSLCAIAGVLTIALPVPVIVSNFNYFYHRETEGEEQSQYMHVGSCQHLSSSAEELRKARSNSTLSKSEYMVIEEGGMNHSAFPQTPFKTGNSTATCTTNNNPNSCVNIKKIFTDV

This assay concerns the target T1, human Kv1.3 voltage-gated K+ channel (Homo sapiens, UniProt P22001).
T1 construct: host or cells: CHO-DUKX
The assay is described as follows: cell-based. The note with it: inhibition of thallium flux, CHO-DUKX cells with human Kv1.3; read-out: IC50.
For the compound `CCCC[C@@H]1NC(=O)[C@@H]2CSSC[C@H](NC(=O)[C@H](CCCNC(=N)N)NC(=O)[C@H](CCCC)NC(=O)[C@H](CCC(=O)O)NC(=O)[C@@H](N)CCCC)C(=O)N[C@@H](CO)C(=O)N[C@@H](C)C(=O)N[C@@H](CO)C(=O)N[C@@H](C(C)C)C(=O)N[C@@H](CCC(=O)O)C(=O)N[C@H]3CSSC[C@H](NC(=O)[C@H](CCCCN)NC(=O)[C@H](CCCCN)NC(=O)[C@H](CC(N)=O)NC1=O)C(=O)N[C@@H](CCCCN)C(=O)N[C@H](C(=O)N[C@@H](Cc1ccc(O)cc1)C(=O)N1CCC[C@H]1C(=O)N[C@@H](CCCNC(=N)N)C(=O)O)CSSC[C@H](NC(=O)[C@H](CCCCN)NC(=O)[C@H](CCC(N)=O)NC(=O)[C@H](CCCCN)NC3=O)C(=O)N[C@@H](CC(C)C)C(=O)N[C@@H](C)C(=O)N[C@@H](C)C(=O)N[C@@H]([C@@H](C)CC)C(=O)NCC(=O)N[C@@H](CO)C(=O)N[C@@H]([C@@H](C)CC)C(=O)N[C@@H](Cc1ccccc1)C(=O)NCC(=O)N[C@@H](CCCCN)C(=O)N2` [Compound 121] (H-[Nle]E[Nle]RCSASVECKQKCLAAIGSIFGKC[Nle]NKKCKCYPR-OH; disulfide 5-26, 11-31, 15-33), the IC50 was determined as 451 pM.

As to `CCCC[C@H](NC(=O)[C@@H]1CCCN1)C(=O)N[C@@H](CCC(=O)O)C(=O)N[C@@H](CCCC)C(=O)N[C@@H](CCCNC(=N)N)C(=O)N[C@H]1CSSC[C@@H]2NC(=O)[C@H](CCCCN)NC(=O)CNC(=O)[C@H](Cc3ccccc3)NC(=O)[C@H]([C@@H](C)CC)NC(=O)[C@H](CO)NC(=O)CNC(=O)[C@H]([C@@H](C)CC)NC(=O)[C@H](C)NC(=O)[C@H](C)NC(=O)[C@H](CC(C)C)NC(=O)[C@@H]3CSSC[C@@H](C(=O)N[C@@H](Cc4ccc(O)cc4)C(=O)N4CCC[C@H]4C(=O)N[C@@H](CCCNC(=N)N)C(=O)N[C@@H](Cc4c[nH]cn4)C(=O)N[C@@H](CCCNC(=N)N)C(=O)O)NC(=O)[C@H](CCCCN)NC(=O)[C@H](CSSC[C@H](NC(=O)[C@H](CCC(=O)O)NC(=O)[C@H](C(C)C)NC(=O)[C@H](CO)NC(=O)[C@H](C)NC(=O)[C@H](CO)NC1=O)C(=O)N[C@@H](CCCCN)C(=O)N[C@@H](CCC(N)=O)C(=O)N[C@@H](CCCCN)C(=O)N3)NC(=O)[C@H](CCCCN)NC(=O)[C@H](CCCCN)NC(=O)[C@H](CC(N)=O)NC(=O)[C@H](CCCC)NC2=O` [Compound 129] (H-P[Nle]E[Nle]RCSASVECKQKCLAAIGSIFGKC[Nle]NKKCKCYPRHR-OH; disulfide 6-27, 12-32, 16-34), the concentration for half-maximal inhibition (IC50) came to 143 pM. With `CCCC[C@H](NC(=O)[C@@H]1CCCN1)C(=O)N[C@@H](CCC(=O)O)C(=O)N[C@@H](CCCC)C(=O)N[C@@H](CCCNC(=N)N)C(=O)N[C@H]1CSSC[C@@H]2NC(=O)[C@H](CCCCN)NC(=O)CNC(=O)[C@H](Cc3ccccc3)NC(=O)[C@H]([C@@H](C)CC)NC(=O)[C@H](CO)NC(=O)CNC(=O)[C@H]([C@@H](C)CC)NC(=O)[C@H](C)NC(=O)[C@H](C)NC(=O)[C@H](CC(C)C)NC(=O)[C@@H]3CSSC[C@@H](C(=O)N[C@@H](Cc4ccc(O)cc4)C(=O)N4CCC[C@H]4C(=O)N[C@@H](CCCNC(=N)N)C(=O)N[C@@H](CO)C(=O)N[C@H](C(=O)O)[C@@H](C)O)NC(=O)[C@H](CCCCN)NC(=O)[C@H](CSSC[C@H](NC(=O)[C@H](CCC(=O)O)NC(=O)[C@H](C(C)C)NC(=O)[C@H](CO)NC(=O)[C@H](C)NC(=O)[C@H](CO)NC1=O)C(=O)N[C@@H](CCCCN)C(=O)N[C@@H](CCC(N)=O)C(=O)N[C@@H](CCCCN)C(=O)N3)NC(=O)[C@H](CCCCN)NC(=O)[C@H](CCCCN)NC(=O)[C@H](CC(N)=O)NC(=O)[C@H](CCCC)NC2=O` [Compound 133] (H-P[Nle]E[Nle]RCSASVECKQKCLAAIGSIFGKC[Nle]NKKCKCYPRST-OH; disulfide 6-27, 12-32, 16-34), the IC50 was found to be 1100 pM. The figure for `CC[C@H](C)[C@@H]1NC(=O)[C@H](C)NC(=O)[C@H](CCCCN)NC(=O)[C@H](CC(C)C)NC(=O)[C@@H]2CSSC[C@@H](C(=O)N[C@@H](Cc3ccc(O)cc3)C(=O)N3CCC[C@H]3C(=O)N[C@@H](CCCNC(=N)N)C(=O)O)NC(=O)[C@H](CCCCN)NC(=O)[C@@H]3CSSC[C@H](NC(=O)[C@H](CCC(=O)O)NC(=O)[C@H](C(C)C)NC(=O)[C@H](CO)NC(=O)[C@H](C)NC(=O)[C@H](CO)NC(=O)[C@@H](NC(=O)[C@H](CCCNC(=N)N)NC(=O)[C@H](CCSC)NC(=O)[C@H](CC(=O)O)NC(=O)[C@H](CCSC)NC(=O)[C@@H](N)CC(N)=O)CSSC[C@H](NC(=O)[C@H](CCCCN)NC(=O)CNC(=O)[C@H](Cc4ccccc4)NC(=O)CNC(=O)[C@H](CCCNC(=N)N)NC(=O)CNC1=O)C(=O)N[C@@H](CCSC)C(=O)N[C@@H](CC(N)=O)C(=O)N[C@@H](CCCCN)C(=O)N[C@@H](CCCCN)C(=O)N3)C(=O)N[C@@H](CCCCN)C(=O)N[C@@H](CCC(N)=O)C(=O)N[C@@H](CCCCN)C(=O)N2` [Compound 4] (H-NMDMRCSASVECKQKCLKAIGRGFGKCMNKKCKCYPR-OH; disulfide 6-27, 12-32, 16-34) is 290 pM; for `CC[C@H](C)[C@@H]1NC(=O)[C@H](C)NC(=O)[C@H](CCCCN)NC(=O)[C@H](CC(C)C)NC(=O)[C@@H]2CSSC[C@@H](C(=O)N[C@@H](Cc3ccc(O)cc3)C(=O)N3CCC[C@H]3C(=O)N[C@@H](CCCNC(=N)N)C(N)=O)NC(=O)[C@H](CCCCN)NC(=O)[C@@H]3CSSC[C@H](NC(=O)[C@H](CCC(=O)O)NC(=O)[C@H](C(C)C)NC(=O)[C@H](CO)NC(=O)[C@H](C)NC(=O)[C@H](CO)NC(=O)[C@@H](NC(=O)[C@H](CCCNC(=N)N)NC(=O)[C@H](CCSC)NC(=O)[C@H](CC(=O)O)NC(=O)[C@H](CCSC)NC(=O)[C@@H](N)CC(N)=O)CSSC[C@H](NC(=O)[C@H](CCCCN)NC(=O)CNC(=O)[C@H](Cc4ccccc4)NC(=O)[C@H]([C@@H](C)CC)NC(=O)[C@H](CO)NC(=O)CNC1=O)C(=O)N[C@@H](CCSC)C(=O)N[C@@H](CC(N)=O)C(=O)N[C@@H](CCCCN)C(=O)N[C@@H](CCCCN)C(=O)N3)C(=O)N[C@@H](CCCCN)C(=O)N[C@@H](CCC(N)=O)C(=O)N[C@@H](CCCCN)C(=O)N2` [Compound 7] (H-NMDMRCSASVECKQKCLKAIGSIFGKCMNKKCKCYPR-NH2; disulfide 6-27, 12-32, 16-34) it is 120 pM; for `CCCC[C@H](NC(=O)[C@H](CC(=O)O)NC(=O)[C@H](CCCC)NC(=O)[C@@H](N)CO)C(=O)N[C@@H](CCCNC(=N)N)C(=O)N[C@H]1CSSC[C@@H]2NC(=O)[C@H](CCCCN)NC(=O)CNC(=O)[C@H](Cc3ccccc3)NC(=O)[C@H]([C@@H](C)CC)NC(=O)[C@H](CO)NC(=O)CNC(=O)[C@H]([C@@H](C)CC)NC(=O)[C@H](C)NC(=O)CNC(=O)[C@H](CC(C)C)NC(=O)[C@@H]3CSSC[C@@H](C(=O)N[C@@H](Cc4ccc(O)cc4)C(=O)N4CCC[C@H]4C(=O)N[C@@H](CCCNC(=N)N)C(N)=O)NC(=O)[C@H](CCCCN)NC(=O)[C@H](CSSC[C@H](NC(=O)[C@H](CCC(=O)O)NC(=O)[C@H](C(C)C)NC(=O)[C@H](CO)NC(=O)[C@H](C)NC(=O)[C@H](CO)NC1=O)C(=O)N[C@@H](CCCCN)C(=O)N[C@@H](CCC(N)=O)C(=O)N[C@@H](CCCCN)C(=O)N3)NC(=O)[C@H](CCCCN)NC(=O)[C@H](CCCCN)NC(=O)[C@H](CC(N)=O)NC(=O)[C@H](CCSC)NC2=O` [Compound 77] (H-S[Nle]D[Nle]RCSASVECKQKCLGAIGSIFGKCMNKKCKCYPR-NH2; disulfide 6-27, 12-32, 16-34) it is 130 pM.
